These results are taken from ChEMBL document CHEMBL5321279 (J Med Chem, 2023).

Molecules are shown by their SMILES. Active and inactive are the calls of the source. The rule behind the calls is not given here.

The subject of data set [1] is PC-3. Nature of the data set: Inhibition of mitochondrial protein synthesis in human PC-3 cells at 100 uM incubated for 5 days. It is filed as functional, cell-based. Particulars: time 5.0 day.
The subject of data set [2] is PC-3. Nature of the data set: Inhibition of mitochondrial respiration in human PC-3 cells at 100 uM incubated for 3 days. It counts as functional, cell-based. Particulars: time 3.0 day.
Data set [3] in a line: Drug metabolism in human NHBE-T cells assessed as fold increase in Nucleotide triphosphate metabolite formation at 10 uM measured after 48 hrs by LC-MS analysis. It counts as ADME, cell-based.
The test system of another data set is Huh-7. Nature of the data set: Cytotoxicity against human Huh-7 cells assessed as reduction in cell growth measured after 5 days by CellTiter-Glo assay. As to conditions: huh-7, 120 h, time 5 day. It counts as toxicity, cell-based. For orientation: ATP-based viability assays read luminescence as a measure of living cells.
For another data set, the system named is MRC5. Nature of the data set: Cytotoxicity against human MRC5 cells assessed as reduction in cell growth measured after 5 days by CellTiter-Glo assay. It counts as toxicity, cell-based. As to conditions: mrc5, 120 h, time 5 day.
Data set [4] in a line: Lipophilicity, logD of compound. It is filed as physicochemical. As to conditions: octanol/water.
Data set [5] in a line: Thermodynamic aqueous solubility at pH 2 measured at 72 hrs by UPLC analysis. It is filed as physicochemical. Particulars: aqueous solution, read-out: Therm_solubility.
For data set [6], the target named is T1, Adenosine deaminase (Homo sapiens) (UniProt P00813).
T1 sequence (whole entry): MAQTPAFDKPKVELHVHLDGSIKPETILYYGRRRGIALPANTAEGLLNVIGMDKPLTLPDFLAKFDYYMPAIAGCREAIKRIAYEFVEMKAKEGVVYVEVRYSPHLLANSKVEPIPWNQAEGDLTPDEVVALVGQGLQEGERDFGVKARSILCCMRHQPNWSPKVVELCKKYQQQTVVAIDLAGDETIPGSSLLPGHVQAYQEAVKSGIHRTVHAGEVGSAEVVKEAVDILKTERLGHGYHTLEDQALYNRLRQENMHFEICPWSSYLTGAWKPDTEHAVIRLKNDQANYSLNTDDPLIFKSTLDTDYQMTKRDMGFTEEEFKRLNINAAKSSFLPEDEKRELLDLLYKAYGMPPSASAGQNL
Nature of the data set: Inhibition of human recombinant ADA1-mediated drug metabolism at 100 uM incubated for 58 mins by absorbance based analysis.

Data set [7] is described as follows: Thermodynamic aqueous solubility at pH 7 measured at 24 hrs by UPLC analysis. As to conditions: aqueous solution, read-out: Therm_solubility. It counts as physicochemical.
Data set [8] can be described thus: AUC(0 to 24 hrs) in rat at 1 mg/kg, iv measured upto 24 hrs by LC-MS/MS analysis. It is filed as ADME, organism-based. On the set-up: dose 1 mg/kg, time < 24 hrs, route iv. As to conditions: in vivo.
A short description of data set [9]: (§1) Cytotoxicity against human primary hepatocytes assessed as reduction in cell growth measured after 5 days by CellTiter-Glo assay. Particulars: primary hepatocytes, time 5 day. It is filed as toxicity, cell-based, Hepatocyte.
Data set [10] is described as follows: Cmax in African green monkey infected with SARS-CoV-2 assessed as prodrug conversion by measuring (2R,3R,4S,5R)-2-(4-aminopyrrolo[2,1-f][1,2,4]triazin-7-yl)-3,4-dihydroxy-5-(hydroxymethyl)tetrahydrofuran-2-carbonitrile at 10 mg/kg, iv qd administered for day 1 followed by 5 mg/kg administration measured after 6 days by LC-MS/MS analysis. It counts as ADME, organism-based, Severe acute respiratory syndrome coronavirus 2. Also on record: dose 10 mg/kg, time 6 day, route iv. As to conditions: in vivo.

The subject of data set [11] is SARS-CoV-2. The data set is described as follows: Antiviral activity against SARS-CoV-2 Omicron XBB infected in human A549-hACE2-TMPRSS2 cells assessed as fold reduction in viral replication pre-incubated with compound followed by viral infection measured after 72 hrs by ELISA assay relative to SARS-CoV-2 WA1. It is filed as functional, Severe acute respiratory syndrome coronavirus 2. For orientation: An ELISA detects its analyte on a solid surface through an enzyme-linked reagent.

The test system of data set [12] is SARS-CoV-2. The data set is described as follows: Antiviral activity against SARS-CoV-2 Omicron BA.2 infected in human A549-hACE2-TMPRSS2 cells assessed as fold reduction in viral replication pre-incubated with compound followed by viral infection measured after 72 hrs by ELISA assay relative to SARS-CoV-2 WA1. It counts as functional, Severe acute respiratory syndrome coronavirus 2.

Data set [13] has as its system SARS-CoV-2. Nature of the data set: Antiviral activity against SARS-CoV-2 Omicron BA.5 infected in human A549-hACE2-TMPRSS2 cells assessed as fold reduction in viral replication pre-incubated with compound followed by viral infection measured after 72 hrs by ELISA assay relative to SARS-CoV-2 WA1. It is filed as functional, Severe acute respiratory syndrome coronavirus 2.

Data set [14] relates to SARS-CoV-2. Nature of the data set: Antiviral activity against SARS-CoV-2 Omicron BA.4.6 infected in human A549-hACE2-TMPRSS2 cells assessed as fold reduction in viral replication pre-incubated with compound followed by viral infection measured after 72 hrs by ELISA assay relative to SARS-CoV-2 WA1. It is filed as functional, Severe acute respiratory syndrome coronavirus 2.

The nature of data set [15]: (§2) Cytotoxicity against stimulated human PBMC cells assessed as reduction in cell growth measured after 5 days by CellTiter-Glo assay. It is filed as toxicity, cell-based. As to conditions: stimulated PBMC, time 5 day.
Data set [16] relates to SARS-CoV-2. The data set is described as follows: Antiviral activity against SARS-CoV-2 Omicron BA.2.75 infected in human A549-hACE2-TMPRSS2 cells assessed as fold reduction in viral replication pre-incubated with compound followed by viral infection measured after 72 hrs by ELISA assay relative to SARS-CoV-2 WA1. It is filed as functional, Severe acute respiratory syndrome coronavirus 2.

Data set [17] in a line: Cytotoxicity against human NHBE-T cells assessed as reduction in cell growth measured after 5 days by CellTiter-Glo assay. It is filed as toxicity, cell-based. As to conditions: NHBE-T cells, time 5 day.
For data set [18], the system named is SARS-CoV-2. Nature of the data set: Antiviral activity against SARS-CoV-2 infected in African green monkey assessed as reduction in viral genomic RNA load in terminal respiratory tissue at 60 to 120 mg/kg, po qd administered for 6 days starting from 8 hrs post infection by RT-qPCR analysis. It is filed as functional, organism-based. Particulars: Severe acute respiratory syndrome coronavirus 2, dose lower 60.0 mg/kg, dose upper […], time 6.0 day. Background: Real-time PCR tracks product formation cycle by cycle.

Another data set concerns Hepatocyte. Described as §1. It is filed as toxicity, cell-based. Particulars: hepatocytes, 120 h, time 5 day.
Data set [19] can be described thus: Oral bioavailability in African green monkey assessed as prodrug conversion by measuring (2R,3R,4S,5R)-2-(4-aminopyrrolo[2,1-f][1,2,4]triazin-7-yl)-3,4-dihydroxy-5-(hydroxymethyl)tetrahydrofuran-2-carbonitrile at 86.5 mg/kg measured upto 24 hrs by LC-MS/MS analysis. It is filed as ADME, organism-based. Particulars: chlorocebus sabaeus, in vivo.
Data set [20] in a line: Half life in African green monkey assessed as prodrug conversion by measuring (2R,3R,4S,5R)-2-(4-aminopyrrolo[2,1-f][1,2,4]triazin-7-yl)-3,4-dihydroxy-5-(hydroxymethyl)tetrahydrofuran-2-carbonitrile at 60 mg/kg, po measured upto 24 hrs by LC-MS/MS analysis. Particulars: chlorocebus sabaeus, in vivo. It counts as ADME, organism-based.
Data set [21] in a line: AUC(0 to 24 hrs) in African green monkey infected with SARS-CoV-2 assessed as prodrug conversion by measuring (2R,3R,4S,5R)-2-(4-aminopyrrolo[2,1-f][1,2,4]triazin-7-yl)-3,4-dihydroxy-5-(hydroxymethyl)tetrahydrofuran-2-carbonitrile at 60 mg/kg, po qd measured after 6 days by LC-MS/MS analysis. On the set-up: time 6 day, dose 60 mg/kg, route po. As to conditions: in vivo. It counts as ADME, organism-based, Severe acute respiratory syndrome coronavirus 2.

Data set [22] deals with SARS-CoV-2. Nature of the data set: Antiviral activity against SARS-CoV-2 infected in African green monkey assessed as reduction in viral load in BALF at 60 to 120 mg/kg, po qd administered for 6 days starting from 8 hrs post infection by PFA assay. It counts as functional, organism-based. As to conditions: Severe acute respiratory syndrome coronavirus 2, dose lower 60.0 mg/kg, dose upper […], time 6.0 day.

The next data set concerns PBMC. The description is as §2. It is filed as toxicity, cell-based. Particulars: pbmc, 120 h, time 5 day.
A short description of data set [23]: Cmax in African green monkey assessed as prodrug conversion by measuring (2R,3R,4S,5R)-2-(4-aminopyrrolo[2,1-f][1,2,4]triazin-7-yl)-3,4-dihydroxy-5-(hydroxymethyl)tetrahydrofuran-2-carbonitrile at […], po measured upto 24 hrs by LC-MS/MS analysis. It is filed as ADME, organism-based. As to conditions: chlorocebus sabaeus, in vivo.
Data set [24] can be described thus: Stability of compound in human liver S9 fraction assessed as half life at pH 7.4 measured upto 90 mins by LC-MS/MS analysis. It counts as ADME, subcellular.
Data set [25] is described as follows: Stability of compound in cynomolgus monkey plasma assessed as half life measured upto 4 hrs by LC-MS/MS analysis. It counts as ADME, cell-free, Macaca fascicularis.

What is called CC50 is the concentration giving 50% cytotoxicity. As a reminder, the logD is lipophilicity at a set pH, counting ionised and neutral species. As a reminder, the AUC is the area under the concentration-time curve, a measure of exposure. With `N#C[C@@]1(c2ccc3c(N)ncnn23)O[C@H](CO)[C@@H](O)[C@H]1O` [GS-441524], the inhibition result with PC-3 [1] and in the data set on PC-3 [2] was “inactive” each time. The Drug metabolism entry in data set [3] was “Metabolite_Detected”. Also, in [3], the “fold change (FC)” value is listed as over 3. Moreover, the CC50 in the data set with Huh-7 and in the data set on MRC5 was over 89 µM in each case. In data set [4], this molecule came in with a logD of under 0.3. In addition, the solubility thermodynamic at 72 h in data set [5] is at most 1000 µg/mL. Also, the inhibition entry in [6] was “Active”. Moreover, the solubility thermodynamic at 24 h in data set [7] is at most 70 µg/mL. Also, the AUC in [8] is 2.5 µM·h.
Usually Cmax stands for the maximum level reached in the sampled fluid or tissue. Consider `CCC(CC)COC(=O)[C@H](C)N[P@](=O)(OC[C@H]1O[C@@](C#N)(c2ccc3c(N)ncnn23)[C@H](O)[C@@H]1O)Oc1ccccc1`, for which the CC50 at 120 h is 2.5 µM in data set [9], 14.8 µM in data set [15] and over 50 µM in data set [17]. In data set [10], the Cmax was found to be 1.23 µM. The “fold change (FC)” value in the data set on SARS-CoV-2 [11] was 1.07; in the data set with SARS-CoV-2 [12], 0.23; with SARS-CoV-2 [13], 0.66; in the data set on SARS-CoV-2 [14], 0.64; in the data set on SARS-CoV-2 [16], 0.3.
A word on the half-life: it is the time in which the quantity being followed falls by half. As to `CC(C)C(=O)OC[C@H]1O[C@@](C#N)(c2ccc3c(N)ncnn23)[C@H](O)[C@@H]1O` [OBELDESIVIR], the result in the data set with SARS-CoV-2 [18] and in the data set with SARS-CoV-2 [22] was Active. Further, the CC50 was over 100 µM with Hepatocyte, over 44 µM in the data set with Huh-7, over 44 µM with MRC5 and over 100 µM in the data set with PBMC. Also, the inhibition result in the data set on PC-3 [1] and in the data set with PC-3 [2] was “inactive” throughout. For the same molecule, the Drug metabolism result in [3] is listed as “Metabolite_Detected”. The “fold change (FC)” value was 1.1 in the data set on SARS-CoV-2 [11]; 0.37 in the data set on SARS-CoV-2 [12]; 0.83 in the data set on SARS-CoV-2 [13]; 0.62 with SARS-CoV-2 [14]; 0.35 in the data set on SARS-CoV-2 [16]. In addition, the logD in [4] (read-out: logD) is under 0.9. In addition, the F in data set [19] is 27%. The solubility thermodynamic at 72 h in data set [5] is at least 40000 µg/mL. In addition, the inhibition result in data set [6] was “Active”. Also, the solubility thermodynamic at 24 h in [7] is at least 1000 µg/mL. The t1/2 in [20] came to 174 min. In data set [21], the AUC was 111 µM·h. For the same molecule, the Cmax in [23] is 6.81 µM. For the same molecule, in data set [24], the half-life at […] is under 2 min. Further, in data set [17], the CC50 at 120 h was over 50 µM. For the same molecule, in data set [25], the half-life was determined as 9.7 min.
